In ChEMBL document CHEMBL3826944, “Syringaresinol induces mitochondrial biogenesis through activation of PPARβ pathway in skeletal muscle cells” (Bioorg Med Chem Lett, 2016):
Activity calls are given as the source filed them. The rule behind the calls is not given here.

Key:
C2C12 [1] = assay: Upregulation of PPARbeta protein expression in PPARbeta siRNA transfected mouse C2C12 myotubes at 1 uM after 24 hrs by immunoblot method; assay type: functional, cell-based
C2C12 [2] = assay: Upregulation of PGC1-alpha protein expression in PPARbeta siRNA transfected mouse C2C12 myotubes at 1 uM after 24 hrs by immunoblot method relative to control; assay type: functional, cell-based
C2C12 [3] = assay: Upregulation of CPT1 protein expression in PPARbeta siRNA transfected mouse C2C12 myotubes at 1 uM after 24 hrs by immunoblot method relative to control; assay type: functional, cell-based
C2C12 [4] = assay: Upregulation of UCP2 protein expression in PPARbeta siRNA transfected mouse C2C12 myotubes at 1 uM after 24 hrs by immunoblot method relative to control; assay type: functional, cell-based
C2C12 [5] = assay: Induction of SIRT1 protein expression in mouse C2C12 myotubes at 1 uM after 24 hrs by immunoblot method; assay type: functional, cell-based
Mus musculus [6] = species: Mus musculus; assay: Activation of AMPK in mouse C2C12 myotubes assessed as increase in expression of phosphorylated AMPK at Thr-172 residue at 1 uM after 24 hrs by immunoblot method
[7] = molecular target: T1, Peroxisome proliferator-activated receptor delta (Homo sapiens) (UniProt Q03181); assay: (§1) Activation of PPARbeta-LBD (unknown origin) assessed as fluorescein-labeled coactivator C33 recruitment by TR-FRET assay
T1 sequence (whole entry): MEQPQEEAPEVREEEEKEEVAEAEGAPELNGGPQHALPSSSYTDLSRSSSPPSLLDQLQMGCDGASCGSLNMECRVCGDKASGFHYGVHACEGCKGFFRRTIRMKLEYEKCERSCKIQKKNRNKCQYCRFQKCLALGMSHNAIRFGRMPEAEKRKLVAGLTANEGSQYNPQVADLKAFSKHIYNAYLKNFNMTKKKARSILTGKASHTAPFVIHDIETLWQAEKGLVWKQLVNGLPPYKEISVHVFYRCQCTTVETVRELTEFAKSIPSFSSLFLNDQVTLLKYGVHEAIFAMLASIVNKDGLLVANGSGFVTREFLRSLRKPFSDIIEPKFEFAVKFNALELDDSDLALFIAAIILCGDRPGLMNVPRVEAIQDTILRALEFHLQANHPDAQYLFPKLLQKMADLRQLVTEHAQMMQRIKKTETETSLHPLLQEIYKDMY

[8] = molecular target: T2, Peroxisome proliferator-activated receptor delta (Homo sapiens, UniProt Q03181); assay: as §1
T2 sequence (Q03181 whole entry): T1 sequence (whole entry)

[9] = molecular target: T2, Peroxisome proliferator-activated receptor delta; assay: Binding affinity to recombinant PPARbeta-LBD (254 to 441 residues) (unknown origin) expressed in Escherichia coli Rosetta2 cells by isothermal titration calorimetry
C2C12 [10] = assay: Induction of PPARbeta mRNA expression in mouse C2C12 myotubes at 50 uM after 24 hrs by qRT-PCR method relative to control; assay type: functional
C2C12 [11] = assay: Induction of PPARbeta protein expression in mouse C2C12 myotubes at 50 uM after 24 hrs by immunoblot method; assay type: functional, cell-based
C2C12 [12] = assay: Induction of PPARbeta mRNA expression in mouse C2C12 myotubes at <50 uM after 24 hrs by qRT-PCR method; assay type: functional, cell-based
C2C12 [13] = assay: Induction of PPARbeta protein expression in mouse C2C12 myotubes at <50 uM after 24 hrs by immunoblot method; assay type: functional, cell-based
[14] = molecular target: T3, Peroxisome proliferator-activated receptor delta (Mus musculus) (UniProt P35396); assay: Activation of PPARbeta in mouse C2C12 myotubes assessed as increase in PGC-1alpha mRNA level at 10 to 25 uM after 24 hrs by qRT-PCR method
T3 sequence (whole entry): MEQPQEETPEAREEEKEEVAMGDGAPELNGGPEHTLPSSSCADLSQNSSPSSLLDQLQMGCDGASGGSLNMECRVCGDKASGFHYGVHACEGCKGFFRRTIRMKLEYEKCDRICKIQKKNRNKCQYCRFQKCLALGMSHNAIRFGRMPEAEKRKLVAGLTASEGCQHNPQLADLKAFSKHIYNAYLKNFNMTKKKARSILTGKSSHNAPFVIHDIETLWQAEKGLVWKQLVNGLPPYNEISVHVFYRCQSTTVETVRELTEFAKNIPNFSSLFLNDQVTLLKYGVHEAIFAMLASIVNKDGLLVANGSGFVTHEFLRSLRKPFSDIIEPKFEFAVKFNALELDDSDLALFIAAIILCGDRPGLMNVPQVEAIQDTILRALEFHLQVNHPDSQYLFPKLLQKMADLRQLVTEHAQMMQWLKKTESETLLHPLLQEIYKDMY

[15] = molecular target: T3, Peroxisome proliferator-activated receptor delta (Mus musculus); assay: Activation of PPARbeta in mouse C2C12 myotubes assessed as increase in PGC-1alpha protein expression at 10 to 25 uM after 24 hrs by immunoblot method
C2C12 [16] = assay: Induction of mitochondrial biogenesis in mouse C2C12 myotubes assessed as increase in mitochondrial DNA content at 25 to 50 uM after 24 hrs by qRT-PCR method; assay type: functional, cell-based
C2C12 [17] = assay: Induction of mitochondrial biogenesis in mouse C2C12 myotubes assessed as increase in mitochondrial density at 25 uM after 24 hrs by Mitotracker Green staining based fluorescence microscopic analysis relative to control; assay type: functional
C2C12 [18] = assay: Induction of mitochondrial biogenesis in mouse C2C12 myotubes assessed as increase in mitochondrial density at 50 uM after 24 hrs by Mitotracker Green staining based fluorescence microscopic analysis relative to control; assay type: functional
C2C12 [19] = assay: Upregulation of PPARbeta protein expression in PPARbeta siRNA transfected mouse C2C12 myotubes at 50 uM after 24 hrs by immunoblot method; assay type: functional, cell-based
C2C12 [20] = assay: Upregulation of PGC1-alpha protein expression in PPARbeta siRNA transfected mouse C2C12 myotubes at 50 uM after 24 hrs by immunoblot method relative to control; assay type: functional, cell-based
C2C12 [21] = assay: Upregulation of CPT1 protein expression in PPARbeta siRNA transfected mouse C2C12 myotubes at 50 uM after 24 hrs by immunoblot method relative to control; assay type: functional, cell-based
C2C12 [22] = assay: Upregulation of UCP2 protein expression in PPARbeta siRNA transfected mouse C2C12 myotubes at 50 uM after 24 hrs by immunoblot method relative to control; assay type: functional, cell-based
C2C12 [23] = assay: Induction of mitochondrial DNA content in PPARbeta siRNA transfected mouse C2C12 myotubes at 50 uM after 24 hrs by qRT-PCR method; assay type: functional, cell-based
C2C12 [24] = assay: Induction of mitochondrial density in PPARbeta siRNA transfected mouse C2C12 myotubes at 50 uM after 24 hrs by Mitotracker Green staining based fluorescence microscopic analysis; assay type: functional, cell-based
C2C12 [25] = assay: Induction of SIRT1 protein expression in mouse C2C12 myotubes at 50 uM after 24 hrs by immunoblot method; assay type: functional, cell-based
Mus musculus [26] = species: Mus musculus; assay: Activation of AMPK in mouse C2C12 myotubes assessed as increase in expression of phosphorylated AMPK at Thr-172 residue at 50 uM after 24 hrs by immunoblot method
C2C12 [27] = assay: Induction of mitochondrial DNA content in scramble siRNA transfected mouse C2C12 myotubes at 50 uM after 24 hrs by qRT-PCR method; assay type: functional, cell-based
C2C12 [28] = assay: Induction of mitochondrial density in scramble siRNA transfected mouse C2C12 myotubes at 50 uM after 24 hrs by Mitotracker Green staining based fluorescence microscopic analysis; assay type: functional, cell-based

In the case of `Cc1cc(SCc2sc(-c3ccc(C(F)(F)F)c(F)c3)nc2C)ccc1OCC(=O)O`, the Activity (C2C12 [1]) is reported as “inactive”, the Activity (C2C12 [2]) is reported as “inactive” and the Activity (C2C12 [3]) is reported as “inactive”. For the same molecule, the Activity (C2C12 [4]) was “inactive”, the Activity (C2C12 [5]) was “Active” and the Activity (Mus musculus [6]) was “Active”.
With `COc1cc([C@H]2OC[C@H]3[C@@H]2CO[C@@H]3c2cc(OC)c(O)c(OC)c2)cc(OC)c1O` [SYRINGARESINOL] the Activity [7] was “Dose-dependent effect”, the EC50 [8] was 18.1 µM and the Kd [9] was 27.6 µM. The “fold change (FC)” value (C2C12 [10]) was over 2, the Activity (C2C12 [11]) was “Active” and the Activity (C2C12 [12]) was “inactive”. The Activity (C2C12 [13]) was “inactive”, the Activity [14] was “Active” and the Activity [15] was “Active”. For the same molecule, the Activity (C2C12 [16]) was “Dose-dependent effect”, the Activity (C2C12 [17]) was 14% and the Activity (C2C12 [18]) was 18%. The Activity (C2C12 [19]) was “inactive”, the Activity (C2C12 [20]) was “inactive” and the Activity (C2C12 [21]) was “inactive”. The Activity (C2C12 [22]) was “inactive”, the Activity (C2C12 [23]) was “inactive” and the Activity (C2C12 [24]) was “inactive”. The Activity (C2C12 [25]) was “inactive”, the Activity (Mus musculus [26]) was “inactive” and the Activity (C2C12 [27]) was “Active”. The Activity (C2C12 [28]) was “Active”.
